Values quoted from earlier work in patent US20170020838A1, “TREATMENT FOR RESPIRATORY DISEASE” (MUCOKINETICA LIMITED, priority 2014, published 2017).

Tested on: airway ENaC
Conditions: Bridges et al. 2001; cited from earlier work

aprotinin
effect on airway ENaC activity: Down regulation
